Source: patent publication US20100160445A1, “Synergistic Mixtures of OPP and DGH” (priority 2002, published 2010)

Legend:
[1] = test system: mixed inoculum of bacteria; experiment: MIC and synergy (K) in nutrient broth, microtiter plates; format: cell-based
Protocol: Stock solutions of each product were prepared in sterile distilled water. Synergism was measured by the method first described by F. C. Kull, P. C. Eisman, H. D. Sylwestrowicz and R. L. Mayer in Applied Microbiology, 9, 538-41 ([…]). This manner of determining synergism has been widely used and is industrially acceptable. It is believed that the specified method is sufficient in explaining the process. However for a further description, reference can be made to U.S. Pat. No. 3,231,509 and its file history, where this type of data was considered acceptable.
• 1. Incubator capable of maintaining a variable temperature range (25-45 C) • 2. Samples of each biocide or test compound to be examined • 3. Microtiter plates—96 well with lid, sterile. • 4. 8-12 channel micropipetting device capable of pipetting 0-250 ul volumes • 5. Micropipette tips capable of holding up to 250 ul volumes • 6. Sterile microbiological culture broth. Trypticase Soy Broth (TSB) or Nutrient Broth (NB) is recommended for bacteria and Sabouraud Maltose Broth (SMB) or Sabouraud Dextrose Broth (SDB) is recommended for yeasts and molds. In the case of this particular study the microbiological culture medium was Nutrient Broth at pH 7.0, 8.0 and 9.0. • 7. Pure cultures of microorganisms of choice grown on appropriate agar medium • 8. Sterile distilled water • 9. 100 mL volumetric flasks (one for each biocide to be tested) • 10. Sterile 10 mL tubes of Phosphate buffer (Butterfield's buffer pH 7.2+/−0.2). Contains purified water, monobasic potassium phosphate and sodium hydroxide for pH adjustment. • 11. Sterile cotton swabs • 12. 0.5 MacFarland Turbidity Standard
The day before testing, perform a streak plate of each organism to be tested on an appropriate agar medium (Trypticase Soy Agar). Organisms tested in this study were: Wild strain bacteria isolated from previously contaminated industrial systems and which were identified as: Pseudomonas sp., Escherchia coli , Enterobacter sp., Alcaligenes sp. and Alcaligenes faecalis. On the day of the test, use a sterile cotton swab to harvest some of the growth. Place swab into a tube containing 10 mL sterile phosphate buffer. Compare and adjust the turbidity of the organisms in the tube to 1×10^8 cfu/mL using a 0.5 MacFarland Turbidity Standard. Dilute the 10 mL tube into 90 mL of sterile 2× nutrient broth at pH 7.0, 8.0 and 9.0.
1. Design the layout of the microtiter plates based on the number of organisms to test and the number of biocides and desired concentrations to test. A separate microtiter plate is required for testing each biocide alone, in addition to the combination microtiter plate. 2. Prepare a working stock solution of each biocide to be tested. For the combination microtiter plate, the working stock solution of Biocide A will be 8× the concentration desired in the first well of the combination microtiter plate. The working stock solution of Biocide B will be 4× the concentration desired in the first well of the combination microtiter plate. For the alone microtiter plates, the working stock solutions of Biocide A and Biocide B will both be 4× the concentration desired in the first well of the single biocide microtiter plates.
Dodecylguanidine hydrochloride: (For combination plates) A solution of this product which is 35% active, was made as follows: […]=8000 ppm active=8000/0.35=22,857 ppm, 2.28 g into 100 mL sterile diH2O. Levels to test are: 1000 ppm, 500 ppm, 250 ppm, 125 ppm, 62.5 ppm, 31.2 ppm, 15.6 ppm, 7.8 ppm, 3.9 ppm, 1.95 ppm
Ortho-PhenylPhenol: (For combination plates) Make a solution of this product which is 99% active, 4×125=500 ppm active=500/0.99=505 ppm, 0.05 g into 100 mL MeOH and sterile diH2O. Level to test is 125 ppm.
3. Place 50 ul of sterile distilled water in all of the rows in columns 1 through 10, and 100 ul of sterile distilled water in all of the rows in columns 11 and 12 of the 96 well combination microtiter plate. […]

[2] = test system: wild strain bacteria isolated from previously contaminated systems; experiment: In-Can Preservation Test of paint samples; format: cell-based; settings: for Effective Preservative (ppm): two inoculation challenge; on Microbial growth, 1st Inoculation, 1st sub-column: key: 4 = Heavy Microbial Growth; 3 = Moderate Microbial Growth; 2 = Slight Microbial Growth; 1 = Trace Microbial Growth; 0 = No Microbial Growth; on Microbial growth, 1st Inoculation, 2nd sub-column: key: 4 = Heavy Microbial Growth; 3 = Moderate Microbial Growth; 2 = Slight Microbial Growth; 1 = Trace Microbial Growth; 0 = No Microbial Growth; on Microbial growth, 2nd Inoculation, 1st sub-column: key: 4 = Heavy Microbial Growth; 3 = Moderate Microbial Growth; 2 = Slight Microbial Growth; 1 = Trace Microbial Growth; 0 = No Microbial Growth; on Microbial growth, 2nd Inoculation, 2nd sub-column: key: 4 = Heavy Microbial Growth; 3 = Moderate Microbial Growth; 2 = Slight Microbial Growth; 1 = Trace Microbial Growth; 0 = No Microbial Growth
Protocol: Preservation Testing was performed on the three paint samples: Acrylic Flat, Acrylic and Vinyl Acrylic. Each sample was treated with various levels OPP, DGH individually and a mixture of OPP and DGH. All samples were then inoculated with wild strain bacteria isolated from previously contaminated systems. Following the initial inoculation, the samples were reinoculated on day 7. This testing scenario best simulates what happens in a “real world” situation. […]

[3] = Table 2 paint (Acrylic Flat / Vinyl Acrylic Flat), 1000 ppm
[4] = Table 2 paint (Acrylic Flat / Vinyl Acrylic Flat), 1500 ppm
[5] = Table 2 paint (Acrylic Flat / Vinyl Acrylic Flat), 2000 ppm
[6] = Table 2 paint (Acrylic Flat / Vinyl Acrylic Flat), 2500 ppm
[7] = Table 2 paint (Acrylic Flat / Vinyl Acrylic Flat), 3000 ppm
[8] = Table 2 paint (Acrylic Flat / Vinyl Acrylic Flat), 3500 ppm
[9] = Table 2 paint (Acrylic Flat / Vinyl Acrylic Flat), 4000 ppm
[10] = Table 3 paint (Vinyl Acrylic Flat / Acrylic Flat), 1000 ppm
[11] = Table 3 paint (Vinyl Acrylic Flat / Acrylic Flat), 1500 ppm
[12] = Table 3 paint (Vinyl Acrylic Flat / Acrylic Flat), 2000 ppm
[13] = Table 3 paint (Vinyl Acrylic Flat / Acrylic Flat), 2500 ppm
[14] = Table 3 paint (Vinyl Acrylic Flat / Acrylic Flat), 3000 ppm
[15] = Table 3 paint (Vinyl Acrylic Flat / Acrylic Flat), 3500 ppm
[16] = Table 3 paint (Vinyl Acrylic Flat / Acrylic Flat), 4000 ppm

Oc1ccccc1-c1ccccc1 [OPP, Ortho-PhenylPhenol]
MIC ([1]; pH 7, read-out: MIC, biocide alone): > 1000 µg/mL | Synergy Index ([1]; pH 8.0, 1000 ppm NaOPP alone (0:100)): 1.00 | Synergy Index ([1]; pH 9.0, 500 ppm NaOPP alone (0:100)): 1.00 | Effective Preservative (ppm) ([2]; Acrylic Flat paint): >4000 ppm | Microbial growth, 1st Inoculation, 1st sub-column ([2]; Acrylic paint, 1000 ppm): 3 | Microbial growth, 1st Inoculation, 2nd sub-column ([2]; Acrylic paint, 1000 ppm): 3 | Microbial growth, 2nd Inoculation, 1st sub-column ([2]; Acrylic paint, 1000 ppm): 3 | Microbial growth, 2nd Inoculation, 2nd sub-column ([2]; Acrylic paint, 1000 ppm): 3 | Microbial growth, 1st Inoculation, 1st sub-column ([2]; Acrylic paint, 1500 ppm): 3 | Microbial growth, 1st Inoculation, 2nd sub-column ([2]; Acrylic paint, 1500 ppm): 3 | Microbial growth, 2nd Inoculation, 1st sub-column ([2]; Acrylic paint, 1500 ppm): 3 | Microbial growth, 2nd Inoculation, 2nd sub-column ([2]; Acrylic paint, 1500 ppm): 3 | Microbial growth, 1st Inoculation, 1st sub-column ([2]; Acrylic paint, 2000 ppm): 3 | Microbial growth, 1st Inoculation, 2nd sub-column ([2]; Acrylic paint, 2000 ppm): 3 | Microbial growth, 2nd Inoculation, 1st sub-column ([2]; Acrylic paint, 2000 ppm): 3 | Microbial growth, 2nd Inoculation, 2nd sub-column ([2]; Acrylic paint, 2000 ppm): 3 | Microbial growth, 1st Inoculation, 1st sub-column ([2]; Acrylic paint, 2500 ppm): 3 | Microbial growth, 1st Inoculation, 2nd sub-column ([2]; Acrylic paint, 2500 ppm): 3 | Microbial growth, 2nd Inoculation, 1st sub-column ([2]; Acrylic paint, 2500 ppm): 3 | Microbial growth, 2nd Inoculation, 2nd sub-column ([2]; Acrylic paint, 2500 ppm): 3 | Microbial growth, 1st Inoculation, 1st sub-column ([2]; Acrylic paint, 3000 ppm): 3 | Microbial growth, 1st Inoculation, 2nd sub-column ([2]; Acrylic paint, 3000 ppm): 3 | Microbial growth, 2nd Inoculation, 1st sub-column ([2]; Acrylic paint, 3000 ppm): 3 | Microbial growth, 2nd Inoculation, 2nd sub-column ([2]; Acrylic paint, 3000 ppm): 3 | Microbial growth, 1st Inoculation, 1st sub-column ([2]; Acrylic paint, 3500 ppm): 3 | Microbial growth, 1st Inoculation, 2nd sub-column ([2]; Acrylic paint, 3500 ppm): 3 | Microbial growth, 2nd Inoculation, 1st sub-column ([2]; Acrylic paint, 3500 ppm): 3 | Microbial growth, 2nd Inoculation, 2nd sub-column ([2]; Acrylic paint, 3500 ppm): 3 | Microbial growth, 1st Inoculation, 1st sub-column ([2]; Acrylic paint, 4000 ppm): 3 | Microbial growth, 1st Inoculation, 2nd sub-column ([2]; Acrylic paint, 4000 ppm): 3 | Microbial growth, 2nd Inoculation, 1st sub-column ([2]; Acrylic paint, 4000 ppm): 3 | Microbial growth, 2nd Inoculation, 2nd sub-column ([2]; Acrylic paint, 4000 ppm): 3 | Effective Preservative (ppm) ([2]; Acrylic paint): >4000 ppm | Microbial growth, 1st Inoculation, 1st sub-column [2, 3]: 3 | Microbial growth, 1st Inoculation, 2nd sub-column [2, 3]: 3 | Microbial growth, 2nd Inoculation, 1st sub-column [2, 3]: 3 | Microbial growth, 2nd Inoculation, 2nd sub-column [2, 3]: 3 | Microbial growth, 1st Inoculation, 1st sub-column [2, 4]: 3 | Microbial growth, 1st Inoculation, 2nd sub-column [2, 4]: 3 | Microbial growth, 2nd Inoculation, 1st sub-column [2, 4]: 3 | Microbial growth, 2nd Inoculation, 2nd sub-column [2, 4]: 3 | Microbial growth, 1st Inoculation, 1st sub-column [2, 5]: 3 | Microbial growth, 1st Inoculation, 2nd sub-column [2, 5]: 3 | Microbial growth, 2nd Inoculation, 1st sub-column [2, 5]: 3 | Microbial growth, 2nd Inoculation, 2nd sub-column [2, 5]: 3 | Microbial growth, 1st Inoculation, 1st sub-column [2, 6]: 3 | Microbial growth, 1st Inoculation, 2nd sub-column [2, 6]: 3 | Microbial growth, 2nd Inoculation, 1st sub-column [2, 6]: 3 | Microbial growth, 2nd Inoculation, 2nd sub-column [2, 6]: 3 | Microbial growth, 1st Inoculation, 1st sub-column [2, 7]: 3 | Microbial growth, 1st Inoculation, 2nd sub-column [2, 7]: 3 | Microbial growth, 2nd Inoculation, 1st sub-column [2, 7]: 3 | Microbial growth, 2nd Inoculation, 2nd sub-column [2, 7]: 3 | Microbial growth, 1st Inoculation, 1st sub-column [2, 8]: 3 | Microbial growth, 1st Inoculation, 2nd sub-column [2, 8]: 3 | Microbial growth, 2nd Inoculation, 1st sub-column [2, 8]: 3 | Microbial growth, 2nd Inoculation, 2nd sub-column [2, 8]: 3 | Microbial growth, 1st Inoculation, 1st sub-column [2, 9]: 3 | Microbial growth, 1st Inoculation, 2nd sub-column [2, 9]: 3 | Microbial growth, 2nd Inoculation, 1st sub-column [2, 9]: 3 | Microbial growth, 2nd Inoculation, 2nd sub-column [2, 9]: 3 | Microbial growth, 1st Inoculation, 1st sub-column [2, 10]: 2 | Microbial growth, 1st Inoculation, 2nd sub-column [2, 10]: 2 | Microbial growth, 2nd Inoculation, 1st sub-column [2, 10]: 2 | Microbial growth, 2nd Inoculation, 2nd sub-column [2, 10]: 2 | Microbial growth, 1st Inoculation, 1st sub-column [2, 11]: 2 | Microbial growth, 1st Inoculation, 2nd sub-column [2, 11]: 2 | Microbial growth, 2nd Inoculation, 1st sub-column [2, 11]: 2 | Microbial growth, 2nd Inoculation, 2nd sub-column [2, 11]: 2 | Microbial growth, 1st Inoculation, 1st sub-column [2, 12]: 2 | Microbial growth, 1st Inoculation, 2nd sub-column [2, 12]: 2 | Microbial growth, 2nd Inoculation, 1st sub-column [2, 12]: 2 | Microbial growth, 2nd Inoculation, 2nd sub-column [2, 12]: 2 | Microbial growth, 1st Inoculation, 1st sub-column [2, 13]: 2 | Microbial growth, 1st Inoculation, 2nd sub-column [2, 13]: 2 | Microbial growth, 2nd Inoculation, 1st sub-column [2, 13]: 2 | Microbial growth, 2nd Inoculation, 2nd sub-column [2, 13]: 2 | Microbial growth, 1st Inoculation, 1st sub-column [2, 14]: 2 | Microbial growth, 1st Inoculation, 2nd sub-column [2, 14]: 2 | Microbial growth, 2nd Inoculation, 1st sub-column [2, 14]: 2 | Microbial growth, 2nd Inoculation, 2nd sub-column [2, 14]: 2 | Microbial growth, 1st Inoculation, 1st sub-column [2, 15]: 2 | Microbial growth, 1st Inoculation, 2nd sub-column [2, 15]: 1 | Microbial growth, 2nd Inoculation, 1st sub-column [2, 15]: 2 | Microbial growth, 2nd Inoculation, 2nd sub-column [2, 15]: 1 | Microbial growth, 1st Inoculation, 1st sub-column [2, 16]: 2 | Microbial growth, 1st Inoculation, 2nd sub-column [2, 16]: 0 | Microbial growth, 2nd Inoculation, 1st sub-column [2, 16]: 2 | Microbial growth, 2nd Inoculation, 2nd sub-column [2, 16]: 0 | Effective Preservative (ppm) ([2]; Vinyl Acrylic Flat paint): 4000 ppm
